Laboratory results reported in patent publication US9266876B2 (Actelion Pharmaceuticals Ltd., priority 2012, dated 2016).

Columns and labels:
[1] = molecular target: human CXCR3A (Homo sapiens (Human), UniProt P49682); experiment: FLIPR assay; format: cell-based; settings: CHO-K1 cells expressing the human CXCR3A coupled to Galpha(16); CXCL10 agonist 20 nM; Fluo-4-AM fluorescence; mean values if determined several times
Procedure, shortened: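 CHO-K1 cells expressing CXCR3A coupled to Gα16 were loaded with Fluo-4-AM for 1 h in Hepes-buffered HBSS, pH 7.4, with 5 mM probenecid. Compound dilutions were added on the FLIPR, followed by CXCL10 (added as a 20 nM solution). Baseline-subtracted peak fluorescence was fitted to a single-site curve for IC50.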

[2] = molecular target: CXCR3 (Homo sapiens (Human), UniProt P49682); experiment: Receptor internalization assay; format: cell-based; settings: human whole blood; final CXCL10 concentration 9 nM; 30 min 37° C.; CXCR3 cell surface expression on CD3 positive cells, flow cytometer; read-out: Internalization IC50
Procedure, shortened: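 In human whole blood, compounds were incubated with CXCL10 (9 nM final) for 30 min at 37 °C to drive receptor internalization, then stained with anti-CXCR3/CD3 antibodies and lysed of red cells. Flow cytometry measured mean surface CXCR3 fluorescence on CD3+ cells, and IC50 came from single-site dose-response fits.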

Sequence of human CXCR3A (P49682 whole entry): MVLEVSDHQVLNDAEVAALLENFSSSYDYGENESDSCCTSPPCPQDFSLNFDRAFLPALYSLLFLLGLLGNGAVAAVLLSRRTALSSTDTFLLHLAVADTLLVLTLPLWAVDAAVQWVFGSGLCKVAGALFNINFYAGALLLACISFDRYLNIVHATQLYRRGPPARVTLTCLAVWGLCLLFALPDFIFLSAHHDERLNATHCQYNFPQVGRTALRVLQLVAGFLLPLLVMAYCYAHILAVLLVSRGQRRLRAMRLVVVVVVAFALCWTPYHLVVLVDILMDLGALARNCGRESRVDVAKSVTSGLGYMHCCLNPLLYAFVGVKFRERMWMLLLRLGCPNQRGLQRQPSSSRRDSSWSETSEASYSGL
Sequence of CXCR3 (P49682 whole entry): as above

SMILES | IC50 [1] | IC50 [2]
C[C@@H]1CN(c2sc(C(F)(F)F)nc2-c2nc3ccc(CN(C)C)cc3[nH]2)CCN1C(=O)Cn1cccn1 [Example 182, 1-{(R)-4-[4-(6-Dimethylaminomethyl-1H-benzoimidazol-2-yl)-2-trifluoromethyl-thiazol-5-yl]-2-methyl-piperazin-1-yl}-2-pyrazol-1-yl-ethanone] | 27 nM | 2240 nM
COC1CCN(Cc2ccc3nc(-c4nc(C(F)(F)F)sc4N4CCN(C(=O)Cn5cccn5)[C@H](C)C4)[nH]c3c2)C1 (stereo partly drawn) [Example 183, 1-((R)-4-{4-[6-(3-Methoxy-pyrrolidin-1-ylmethyl)-1H-benzoimidazol-2-yl]-2-trifluoromethyl-thiazol-5-yl}-2-methyl-piperazin-1-yl)-2-pyrazol-1-yl-ethanone] | 15 nM | 1440 nM
C[C@@H]1CN(c2sc(C(F)(F)F)nc2-c2nc3ccccc3n2C)CCN1C(=O)Cn1cccn1 [Example 184, 1-{(R)-2-Methyl-4-[4-(1-methyl-1H-benzoimidazol-2-yl)-2-trifluoromethyl-thiazol-5-yl]-piperazin-1-yl}-2-pyrazol-1-yl-ethanone] | 53 nM | 3420 nM
COCCn1c(-c2nc(C(F)(F)F)sc2N2CCN(C(=O)Cn3cccn3)[C@H](C)C2)nc2ccccc21 [Example 185, 1-((R)-4-{4-[1-(2-Methoxy-ethyl)-1H-benzoimidazol-2-yl]-2-trifluoromethyl-thiazol-5-yl}-2-methyl-piperazin-1-yl)-2-pyrazol-1-yl-ethanone] | 37 nM | 6620 nM
C[C@@H]1CN(c2scnc2-c2nc3ccccc3[nH]2)CCN1C(=O)Cc1ccccc1-n1nccn1 [Example 186, 1-{(R)-4-[4-(1H-Benzoimidazol-2-yl)-thiazol-5-yl]-2-methyl-piperazin-1-yl}-2-(2-[1,2,3]triazol-2-yl-phenyl)-ethanone] | 4 nM | 1610 nM
C[C@@H]1CN(c2scnc2-c2nc3ccccc3[nH]2)CCN1C(=O)CN1C(=O)C(F)(F)c2ccccc21 [Example 187, 1-(2-{(R)-4-[4-(1H-Benzoimidazol-2-yl)-thiazol-5-yl]-2-methyl-piperazin-1-yl}-2-oxo-ethyl)-3,3-difluoro-1,3-dihydro-indol-2-one] | 0.3 nM | 1110 nM
C[C@@H]1CN(c2scnc2-c2nc3ccccc3[nH]2)CCN1C(=O)Cn1cc(-c2ccccc2)nn1 [Example 188, 1-{(R)-4-[4-(1H-Benzoimidazol-2-yl)-thiazol-5-yl]-2-methyl-piperazin-1-yl}-2-(4-phenyl-[1,2,3]triazol-1-yl)-ethanone] | 4 nM | 3820 nM
C[C@@H]1CN(c2sc(C(F)(F)F)nc2-c2nc3ccccc3[nH]2)CCN1C(=O)Cn1cc(-c2ccccc2)nn1 [Example 189, 1-{(R)-4-[4-(1H-Benzoimidazol-2-yl)-2-trifluoromethyl-thiazol-5-yl]-2-methyl-piperazin-1-yl}-2-(4-phenyl-[1,2,3]triazol-1-yl)-ethanone] | 2 nM | 1760 nM
C[C@@H]1CN(c2sc(C(F)(F)F)nc2-c2nc3ccccc3[nH]2)CCN1C(=O)Cc1cccc2cccnc12 [Example 190, 1-{(R)-4-[4-(1H-Benzoimidazol-2-yl)-2-trifluoromethyl-thiazol-5-yl]-2-methyl-piperazin-1-yl}-2-quinolin-8-yl-ethanone] | 1 nM | 514 nM
Cc1cnn(CC(=O)N2CCN(c3sc(C(F)(F)F)nc3-c3nc4ccccc4[nH]3)C[C@H]2C)c1 [Example 191, 1-{(R)-4-[4-(1H-Benzoimidazol-2-yl)-2-trifluoromethyl-thiazol-5-yl]-2-methyl-piperazin-1-yl}-2-(4-methyl-pyrazol-1-yl)-ethanone] | 1 nM | 470 nM
Cc1cc(C)n(CC(=O)N2CCN(c3sc(C(F)(F)F)nc3-c3nc4ccccc4[nH]3)C[C@H]2C)n1 [Example 192, 1-{(R)-4-[4-(1H-Benzoimidazol-2-yl)-2-trifluoromethyl-thiazol-5-yl]-2-methyl-piperazin-1-yl}-2-(3,5-dimethyl-pyrazol-1-yl)-ethanone] | 1 nM | 116 nM
